BindingDB's records for doi:10.1016/s0223-5234(00)01171-5 (Clinical Research Institute of Montreal, 2000)
Several values for one entry are separate records, joined by “and”; a condition that tells them apart may be missing. Equal values may be shown once.

Experiments:
[1] = target: Delta-type opioid receptor (Mus musculus, UniProt P32300)
Mu-type opioid receptor = Mu-type opioid receptor (Cavia porcellus, UniProt P97266)
[2] = target: Kappa-type opioid receptor (Cavia porcellus, UniProt P41144)
Kappa-type opioid receptor, sequence (P41144 whole entry): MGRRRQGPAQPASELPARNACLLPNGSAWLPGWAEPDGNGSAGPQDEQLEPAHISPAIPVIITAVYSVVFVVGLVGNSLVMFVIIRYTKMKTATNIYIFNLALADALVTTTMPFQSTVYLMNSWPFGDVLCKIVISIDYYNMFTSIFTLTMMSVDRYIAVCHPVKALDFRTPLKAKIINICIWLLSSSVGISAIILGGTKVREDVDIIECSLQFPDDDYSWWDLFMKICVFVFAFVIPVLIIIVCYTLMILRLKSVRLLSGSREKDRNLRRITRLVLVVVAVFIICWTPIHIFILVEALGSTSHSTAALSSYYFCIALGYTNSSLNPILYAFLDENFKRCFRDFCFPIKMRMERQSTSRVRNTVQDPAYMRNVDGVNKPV

Delta-type opioid receptor, sequence (P32300 whole entry): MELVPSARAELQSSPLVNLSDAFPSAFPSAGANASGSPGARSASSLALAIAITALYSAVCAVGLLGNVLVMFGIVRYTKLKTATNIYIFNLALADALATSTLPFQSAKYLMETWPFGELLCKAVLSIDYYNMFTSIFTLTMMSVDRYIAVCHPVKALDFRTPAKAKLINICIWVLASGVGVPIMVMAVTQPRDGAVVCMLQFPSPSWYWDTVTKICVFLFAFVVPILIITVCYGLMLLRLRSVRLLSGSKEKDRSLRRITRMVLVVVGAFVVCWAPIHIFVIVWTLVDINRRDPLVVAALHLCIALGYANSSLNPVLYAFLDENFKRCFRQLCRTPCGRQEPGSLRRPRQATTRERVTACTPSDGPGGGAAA
Mu-type opioid receptor, sequence (P97266 whole entry): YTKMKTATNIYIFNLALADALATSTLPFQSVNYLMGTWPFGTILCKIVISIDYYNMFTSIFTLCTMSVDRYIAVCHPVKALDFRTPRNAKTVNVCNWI

## Cc1cc(O)cc(C)c1C[C@H](N)C(=O)N[C@H](CCCN=C(N)N)C(=O)N[C@@H](Cc1ccccc1)C(=O)N[C@@H](CCCN)C(N)=O [Dmt-d-Arg-Phe-Orn-NH2]
[1]
  Ki: 1240 nM
Mu-type opioid receptor
  Ki: 0.151 nM
[2]
  Ki: 26.3 nM

## Cc1cc(O)cc(C)c1C[C@H](N)C(=O)N[C@H](CCCN=C(N)N)C(=O)N[C@@H](Cc1ccccc1)C(=O)N[C@@H](CCN)C(N)=O [H-Dmt-D-Arg-Phe-A2bu-NH2]
[1]
  Ki: 6130 nM
Mu-type opioid receptor
  Ki: 0.803 nM
[2]
  Ki: 47.5 nM

## Cc1cc(O)ccc1C[C@H](N)C(=O)N[C@H](CCCN=C(N)N)C(=O)N[C@@H](Cc1ccccc1)C(=O)N[C@@H](CCCCN)C(N)=O [H-Hmt-D-Arg-Phe-Lys-NH2 II]
[1]
  Ki: > 10000 nM and 2320 nM

## NCCCC[C@H](NC(=O)[C@H](Cc1ccccc1)NC(=O)[C@@H](CCCN=C(N)N)NC(=O)[C@@H](N)Cc1ccc(O)cc1)C(N)=O [NSC_122222]
Mu-type opioid receptor
  Ki: 1.69 nM
[2]
  Ki: 4230 nM

## CN[C@@H](Cc1c(C)cc(O)cc1C)C(=O)N[C@H](CCCN=C(N)N)C(=O)N[C@@H](Cc1ccccc1)C(=O)N[C@@H](CCCCN)C(N)=O [Tmt-D-Arg-Phe-Lys-NH2]
[1]
  Ki: 543 nM
Mu-type opioid receptor
  Ki: 0.192 nM
[2]
  Ki: 46.1 nM
